# Source: patent US11879145B2, “Reagents and methods for replication, transcription, and translation in semi-synthetic organisms” (The Scripps Research Institute, priority 2019, dated 2024)
# Assays:
# sfGFP^151(AXC) [1] = assay: In vivo translation screen of XTPs/YTPs: protein shift (AzK incorporation) by DBCO-TAMRA western blot; assay type: cell-based, E. coli; settings: TPT3TP 30 μM, dCNMO-dTPT3 UBP, strain ML2
# Description: (§1) In vivo Translation Screen of XTPs/YTPs. An overnight culture of the SSO strain ML2 carrying the pGEX-MbPylRS TetR plasmid was grown in 2×YT supplemented with 50 mM potassium phosphate, […] chloramphenicol and 100 μg/mL carbenicillin (herein referred to in this section as “media”), then diluted back to an OD600 of 0.03 in the same media and grown to an OD600 of 0.4 to 0.6. The culture was then chilled with shaking over ice-water for 15 minutes then pelleted by centrifugation at 3,200×g for 10 min. Cells were then resuspended and washed with ice-cold ddH2O twice then resuspended in ice-cold ddH2O to OD600 of 55-65. The electrocompetent cells (50 μL) and 1 ng of Golden Gate assembled plasmid with the UBP within the sfGFP and tRNAPyl genes (see Golden Gate Assembly of Plasmids) were transferred to a pre-chilled electroporation cuvette (0.2-cm-gap), then electroporated (Gene Pulser II; Bio-Rad) according to manufacturer's recommendations (voltage […], capacitor 2.5 μF, resistor 200Ω), and then immediately diluted with 950 μL of media. An aliquot (40 μL) of the transformation was then diluted five-fold in media supplemented with dCNMOTP (25 μM) and dTPT3TP (10 μM) for a final volume of 200 μL then allowed to recover for 1 h shaking at 37° C. Two-fold dilutions of the recovery were plated onto solid media supplemented with zeocin (50 μg/mL), dCNMOTP (10 μM), dTPT3TP (10 μM), and agar (2% w/v), then grown at 37° C. for 18 h. Single colonies were picked and grown in media (300 μL) supplemented with 50 μg/mL zeocin and provided dCNMOTP (25 μM) and dTPT3TP (10 μM) (herein afterward referred to in this section as “growth media”). The culture was monitored for cell growth (Envision 2103 Multilabel Plate Reader with a 590/20 nm filter) and then collected at an OD600˜1.0. An aliquot (50 μL) was subjected to plasmid isolation using the ZR Plasmid Prep Kit (Zymo Research). Isolated plasmids were then subjected to the streptavidin gel shift assay described below (using primers P3-4 and P5-6, Table S1) to determine UBP retention.
# (§2) A colony with excellent UBP retention was then diluted to an OD600˜0.01 in growth media and grown to OD600˜0.4-0.6. This culture was then divided into multiple 300 μL cultures and for the screen of XTP analogs, each was provided with the corresponding XTP (at either 25 μM or 250 μM) or ddH2O for “−XTP” samples, TPT3TP (30 μM), and AzK (10 mM). For the screen of YTP analogs, each 300 μL culture was provided with the corresponding YTP (at either 25 μM or 250 μM) or ddH2O for “−YTP” samples, NaMTP (250 μM), and AzK (10 mM). Samples were shielded from light after addition of AzK to prevent photodegradation. These samples were then grown at 37° C. for 20 min before adding 1 mM IPTG and grown at 37° C. for an additional 1 h to induce T7 RNAP and transcription of tRNAPyl and PylRS. From this point on, cells were monitored for growth and fluorescence. Expression of sfGFP was then induced with anhydrotetracycline (100 ng/mL). After an additional 3 h of growth at 37° C., cells were collected (230 μL for affinity purification of sfGFP), cooled, and then pelleted and stored at −80° C. before protein purification.
# Affinity Purification of sfGFP. Cell pellets collected from translation experiments were resuspended in BugBuster (100 μL 1×, EMD Millipore) and shaken at room temperature for 15 min. […]
# sfGFP^151(AXC) [2] = assay: In vivo translation screen of XTPs/YTPs: total sfGFP fluorescence; assay type: cell-based, E. coli
# Description: as §1, §2
# An SAR analysis was initiated with NaMTP and the nine XTP analogs. Based on performance in the dXTP screen described above, and to eliminate variable loss at the DNA level as a complicating factor, the unnatural information was encoded with the dCNMO-dTPT3 UBP. Additionally, the E. coli strain ML2, which expresses the nucleoside triphosphate transporter PtNTT2, but has also been genetically engineered for higher fidelity replication of the UBP by deletion of the gene encoding RecA (as is common in cloning strains) and overexpression of DNA Pol II was used. The same plasmid described above in Examples 1A and 1, harboring sfGFP^151(AXC) and tRNA^Pyl(GYT), was used, and to focus the screen to a single unnatural ribonucleotide, the M. mazei Pyl tRNA was transcribed in the presence of 30 μM TPT3TP. […]
smiles,measurement,setting,value
COc1cc(C)c(F)cc1[C@@H]1O[C@H](COP(=O)(O)OP(=O)(O)OP(=O)(O)O)[C@@H](O)[C@H]1O [Compound 5FMTP],sfGFP protein gel shift (ncAA incorporation),sfGFP^151(AXC) [1]; XTP 25 μM,94%
same,sfGFP protein gel shift (ncAA incorporation),sfGFP^151(AXC) [1]; XTP 250 μM,98%
same,More fluorescence than MMO2TP,sfGFP^151(AXC) [2]; XTP 25 μM,34%
same,Bulk fluorescence compared to cells grown with NaMTP at the same concentration,sfGFP^151(AXC) [2]; XTP 250 μM,90%
